Measurements reported in article PMC9820167, “Design and Synthesis of Conformationally Flexible Scaffold as Bitopic Ligands for Potent D3-Selective Antagonists” (International Journal of Molecular Sciences, 2022).

How the values were obtained:
[1] = molecular target: Adrenergic beta2 (Homo sapiens, UniProt P07550); assay: PDSP binding screen; details: read-out: Ki (nM) or % inhibition at 10 µM: beta2
[2] = molecular target: Dopamine D1 (Homo sapiens, UniProt P21728); assay: PDSP binding screen; details: read-out: Ki (nM) or % inhibition at 10 µM: D1
[3] = molecular target: T1, Muscarinic M4 (Homo sapiens, UniProt P08173); assay: PDSP binding screen; details: read-out: Ki (nM) or % inhibition at 10 µM: M4
T1 sequence (P08173 1-479): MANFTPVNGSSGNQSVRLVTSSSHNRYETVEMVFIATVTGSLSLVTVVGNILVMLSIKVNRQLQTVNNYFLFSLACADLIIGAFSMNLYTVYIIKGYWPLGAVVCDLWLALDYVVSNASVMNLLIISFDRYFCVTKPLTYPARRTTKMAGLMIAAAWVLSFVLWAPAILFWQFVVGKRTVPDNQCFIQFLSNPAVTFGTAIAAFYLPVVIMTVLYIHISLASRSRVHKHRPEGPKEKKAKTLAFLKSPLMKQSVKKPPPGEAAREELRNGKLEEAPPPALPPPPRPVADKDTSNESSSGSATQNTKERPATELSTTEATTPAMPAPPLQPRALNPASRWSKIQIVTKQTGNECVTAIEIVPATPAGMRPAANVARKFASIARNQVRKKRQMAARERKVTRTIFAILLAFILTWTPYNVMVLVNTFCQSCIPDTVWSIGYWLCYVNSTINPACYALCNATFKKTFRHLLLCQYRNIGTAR

[4] = molecular target: T2, Serotonin 5-HT1A (Homo sapiens, UniProt P08908); assay: PDSP binding screen
T2 sequence (P08908 1-422): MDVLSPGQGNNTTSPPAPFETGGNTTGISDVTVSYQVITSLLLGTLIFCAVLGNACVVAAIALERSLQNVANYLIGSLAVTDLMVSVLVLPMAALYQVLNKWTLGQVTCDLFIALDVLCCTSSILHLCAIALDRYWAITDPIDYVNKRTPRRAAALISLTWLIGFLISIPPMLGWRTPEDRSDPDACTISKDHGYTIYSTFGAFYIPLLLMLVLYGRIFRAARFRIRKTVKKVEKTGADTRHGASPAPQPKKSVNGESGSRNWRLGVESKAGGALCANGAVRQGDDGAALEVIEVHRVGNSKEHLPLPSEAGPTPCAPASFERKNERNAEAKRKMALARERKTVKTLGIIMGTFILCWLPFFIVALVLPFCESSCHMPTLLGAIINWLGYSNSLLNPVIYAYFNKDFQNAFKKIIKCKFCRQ

[5] = molecular target: human D3 receptors (Homo sapiens, UniProt P35462); assay: β-arrestin recruitment assay (antagonist mode, competition with dopamine); type: cell-based; parameters: expressed in transfected cells
Experimental: Two different assays were used to evaluate the properties of the analogs described above. The receptor binding affinity was measured by radioligand binding assays using [^125I]IABN with D2 or D3 receptors highly expressed HEK293 cells. The functional activity of the analogs was determined using a β-arrestin recruitment assay. The assay was initially conducted in agonist binding mode to confirm that they function as antagonists at the D3 receptor. Once this efficacy was confirmed, the assay was conducted in antagonist mode to determine the ability of the antagonist to compete with dopamine at the D3 receptor. The results of the antagonist mode assay are reported as IC50 values.
CHO-K1 cells which were overexpressed human D3 receptors were cultured in assaycomplete^TM cell culture kit 107. Cells were seeded at a density of 25,000 cells per well of 96-well plate, and incubated at 5% CO2, 37 °C. Two days later, test compounds were dissolved in DMSO, and diluted with 11-point series in phosphate-buffered saline (PBS). Prepared compounds were added to the cells, and it was incubated for 30 min at 5% CO2, 37 °C. Then, cells were treated with 30 nM (EC80) of dopamine, and the plate was incubated another 90 min. PathHunter^TM detection reagent was added to each well, and then plate was incubated for 80 min at RT in the dark. The chemiluminescent signal was measured by PerkinElmer Enspire plate reader (PerkinElmer, Boston, MA). Data were analyzed by Prism followed by non-linear regression.

[6] = molecular target: Histamine H3 (Homo sapiens, UniProt Q9Y5N1); assay: PDSP binding screen; details: read-out: Ki (nM) or % inhibition at 10 µM: H3
[7] = molecular target: Benzodiazepine receptor (PBR) (Rattus norvegicus, UniProt P16257); assay: PDSP binding screen
[8] = molecular target: Norepinephrine transporter (NET) (Homo sapiens, UniProt P23975); assay: PDSP binding screen
[9] = molecular target: Opioid KOR (Homo sapiens, UniProt P41145); assay: PDSP binding screen; details: read-out: Ki (nM) or % inhibition at 10 µM: KOR
[10] = molecular target: Muscarinic M3 (Homo sapiens, UniProt P20309); assay: PDSP binding screen
[11] = molecular target: T3, Adrenergic alpha1B (Homo sapiens, UniProt P35368); assay: PDSP binding screen
T3 sequence (P35368 1-520): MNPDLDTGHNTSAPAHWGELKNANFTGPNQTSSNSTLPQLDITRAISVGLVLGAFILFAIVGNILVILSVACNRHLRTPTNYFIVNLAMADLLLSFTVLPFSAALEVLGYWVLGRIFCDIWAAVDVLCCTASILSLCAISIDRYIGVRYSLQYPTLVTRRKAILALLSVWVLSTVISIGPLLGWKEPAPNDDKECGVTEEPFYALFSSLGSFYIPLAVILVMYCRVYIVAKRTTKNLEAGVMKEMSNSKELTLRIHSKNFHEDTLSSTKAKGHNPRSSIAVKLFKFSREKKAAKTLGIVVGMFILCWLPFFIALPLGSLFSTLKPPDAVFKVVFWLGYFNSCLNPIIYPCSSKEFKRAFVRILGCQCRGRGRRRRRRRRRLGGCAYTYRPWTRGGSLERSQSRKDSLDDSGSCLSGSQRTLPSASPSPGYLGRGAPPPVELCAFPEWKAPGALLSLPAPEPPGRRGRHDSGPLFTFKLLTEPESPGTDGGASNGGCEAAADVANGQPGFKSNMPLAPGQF

[12] = molecular target: Serotonin 5-HT2A (Homo sapiens, UniProt P28223); assay: PDSP binding screen
Sequence of Serotonin 5-HT2A (P28223 whole entry): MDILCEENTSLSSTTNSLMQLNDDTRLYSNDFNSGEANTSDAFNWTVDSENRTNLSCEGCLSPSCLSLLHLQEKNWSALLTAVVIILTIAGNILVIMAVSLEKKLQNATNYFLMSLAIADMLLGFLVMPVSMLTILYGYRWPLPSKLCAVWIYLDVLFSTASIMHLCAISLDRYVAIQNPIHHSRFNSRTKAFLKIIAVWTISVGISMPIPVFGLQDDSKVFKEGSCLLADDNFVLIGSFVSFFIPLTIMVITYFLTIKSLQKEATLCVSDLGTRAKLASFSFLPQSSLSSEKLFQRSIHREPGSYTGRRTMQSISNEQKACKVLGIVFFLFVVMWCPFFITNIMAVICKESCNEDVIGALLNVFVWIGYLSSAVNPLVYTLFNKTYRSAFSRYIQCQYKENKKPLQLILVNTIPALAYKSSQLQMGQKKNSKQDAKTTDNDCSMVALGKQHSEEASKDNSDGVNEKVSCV

Sequence of human D3 receptors (P35462 whole entry): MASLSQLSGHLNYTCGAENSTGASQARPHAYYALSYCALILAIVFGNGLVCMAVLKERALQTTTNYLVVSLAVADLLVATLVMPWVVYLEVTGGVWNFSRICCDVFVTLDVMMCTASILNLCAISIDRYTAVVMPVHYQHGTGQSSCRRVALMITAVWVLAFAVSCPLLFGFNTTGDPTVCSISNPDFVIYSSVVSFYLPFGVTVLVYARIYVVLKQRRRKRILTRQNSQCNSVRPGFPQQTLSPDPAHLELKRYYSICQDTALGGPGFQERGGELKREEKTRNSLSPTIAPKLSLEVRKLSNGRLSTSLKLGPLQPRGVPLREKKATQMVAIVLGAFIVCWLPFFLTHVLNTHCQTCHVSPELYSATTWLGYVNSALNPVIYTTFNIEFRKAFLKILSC
Sequence of Histamine H3 (Q9Y5N1 whole entry): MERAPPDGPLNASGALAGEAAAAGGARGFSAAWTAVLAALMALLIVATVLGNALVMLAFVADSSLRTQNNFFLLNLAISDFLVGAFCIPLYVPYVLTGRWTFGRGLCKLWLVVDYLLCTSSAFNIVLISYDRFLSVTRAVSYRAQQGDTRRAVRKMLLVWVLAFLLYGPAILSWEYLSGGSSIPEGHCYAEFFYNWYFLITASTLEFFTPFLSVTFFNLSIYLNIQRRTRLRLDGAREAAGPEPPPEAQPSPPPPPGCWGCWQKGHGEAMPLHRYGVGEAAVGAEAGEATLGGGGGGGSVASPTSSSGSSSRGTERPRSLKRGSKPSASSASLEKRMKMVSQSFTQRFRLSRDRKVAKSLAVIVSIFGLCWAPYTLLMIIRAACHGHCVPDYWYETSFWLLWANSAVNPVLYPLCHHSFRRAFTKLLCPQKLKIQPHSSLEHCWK
Sequence of Adrenergic beta2 (P07550 whole entry): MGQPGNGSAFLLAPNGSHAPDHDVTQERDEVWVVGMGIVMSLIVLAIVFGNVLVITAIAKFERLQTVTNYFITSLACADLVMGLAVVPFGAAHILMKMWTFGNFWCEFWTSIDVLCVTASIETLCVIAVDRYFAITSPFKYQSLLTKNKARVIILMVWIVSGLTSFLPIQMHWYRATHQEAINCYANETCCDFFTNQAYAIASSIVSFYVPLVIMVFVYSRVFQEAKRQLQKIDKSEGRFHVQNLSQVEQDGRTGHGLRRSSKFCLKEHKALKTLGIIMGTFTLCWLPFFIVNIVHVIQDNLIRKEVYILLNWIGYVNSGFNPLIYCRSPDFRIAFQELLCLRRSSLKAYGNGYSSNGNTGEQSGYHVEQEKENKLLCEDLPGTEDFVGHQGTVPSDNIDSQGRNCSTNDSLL
Sequence of Dopamine D1 (P21728 whole entry): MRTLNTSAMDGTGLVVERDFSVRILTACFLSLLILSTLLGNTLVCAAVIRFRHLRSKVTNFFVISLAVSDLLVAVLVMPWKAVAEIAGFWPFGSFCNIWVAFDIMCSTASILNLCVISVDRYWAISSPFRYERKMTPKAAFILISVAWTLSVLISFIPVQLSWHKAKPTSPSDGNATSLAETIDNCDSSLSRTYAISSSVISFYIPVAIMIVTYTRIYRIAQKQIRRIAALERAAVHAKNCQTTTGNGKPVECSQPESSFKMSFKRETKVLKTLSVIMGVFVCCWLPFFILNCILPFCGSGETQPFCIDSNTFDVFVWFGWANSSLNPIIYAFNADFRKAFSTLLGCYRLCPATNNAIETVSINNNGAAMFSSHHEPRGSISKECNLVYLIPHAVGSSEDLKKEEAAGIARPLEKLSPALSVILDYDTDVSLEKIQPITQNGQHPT
Sequence of Norepinephrine transporter (NET) (P23975 whole entry): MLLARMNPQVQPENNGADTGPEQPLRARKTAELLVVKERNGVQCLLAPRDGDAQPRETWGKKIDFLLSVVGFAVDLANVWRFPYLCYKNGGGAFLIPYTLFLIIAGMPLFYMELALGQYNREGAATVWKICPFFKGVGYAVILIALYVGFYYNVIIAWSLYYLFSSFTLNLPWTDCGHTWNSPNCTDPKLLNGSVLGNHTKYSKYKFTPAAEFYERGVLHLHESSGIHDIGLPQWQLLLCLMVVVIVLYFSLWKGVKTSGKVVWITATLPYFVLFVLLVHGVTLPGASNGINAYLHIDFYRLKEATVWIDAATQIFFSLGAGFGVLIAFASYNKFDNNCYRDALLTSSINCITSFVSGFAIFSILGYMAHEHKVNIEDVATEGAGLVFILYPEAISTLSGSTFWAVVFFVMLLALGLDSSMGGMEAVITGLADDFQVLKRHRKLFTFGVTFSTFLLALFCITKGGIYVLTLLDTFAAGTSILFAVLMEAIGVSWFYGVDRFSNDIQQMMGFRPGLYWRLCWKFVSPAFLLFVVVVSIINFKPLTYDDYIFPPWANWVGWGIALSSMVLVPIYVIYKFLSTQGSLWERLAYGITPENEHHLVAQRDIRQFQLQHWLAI
Sequence of Muscarinic M3 (P20309 whole entry): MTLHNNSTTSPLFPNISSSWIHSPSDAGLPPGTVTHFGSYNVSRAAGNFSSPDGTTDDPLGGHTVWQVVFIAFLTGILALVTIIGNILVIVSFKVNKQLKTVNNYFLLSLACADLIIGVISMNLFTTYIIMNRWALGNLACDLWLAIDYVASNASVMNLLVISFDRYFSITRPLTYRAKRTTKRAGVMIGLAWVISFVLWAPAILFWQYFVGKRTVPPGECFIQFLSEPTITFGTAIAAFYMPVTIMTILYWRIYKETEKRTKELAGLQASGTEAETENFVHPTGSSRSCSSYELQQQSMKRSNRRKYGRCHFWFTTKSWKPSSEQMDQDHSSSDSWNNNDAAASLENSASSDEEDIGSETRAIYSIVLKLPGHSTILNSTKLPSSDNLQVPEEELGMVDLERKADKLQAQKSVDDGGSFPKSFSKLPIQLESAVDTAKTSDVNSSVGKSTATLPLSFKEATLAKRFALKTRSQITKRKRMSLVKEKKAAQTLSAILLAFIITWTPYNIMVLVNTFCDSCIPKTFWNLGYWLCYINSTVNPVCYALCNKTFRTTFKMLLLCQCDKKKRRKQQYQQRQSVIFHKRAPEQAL
Sequence of Opioid KOR (P41145 whole entry): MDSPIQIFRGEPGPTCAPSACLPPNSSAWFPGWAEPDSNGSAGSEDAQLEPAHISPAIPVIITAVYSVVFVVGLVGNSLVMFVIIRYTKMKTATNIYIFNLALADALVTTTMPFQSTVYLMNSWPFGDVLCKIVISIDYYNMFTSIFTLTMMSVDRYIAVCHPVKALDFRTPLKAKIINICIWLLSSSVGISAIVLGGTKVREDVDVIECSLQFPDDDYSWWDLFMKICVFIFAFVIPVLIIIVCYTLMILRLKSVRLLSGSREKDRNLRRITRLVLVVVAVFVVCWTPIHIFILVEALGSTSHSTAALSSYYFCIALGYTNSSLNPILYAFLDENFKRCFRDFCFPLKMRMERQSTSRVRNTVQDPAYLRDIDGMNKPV

Structure (SMILES): CCN(CCCNC(=O)c1ccc2ccccc2c1)CCNC(=O)c1cc(Br)cc(OC)c1OC [21a, N-(3-((2-(5-Bromo-2,3-dimethoxybenzamido)ethyl)(ethyl)amino)propyl)-2-naphthamide]
- inhibition at 10 µM [1]: < 50%
- inhibition at 10 µM [2]: < 50%
- inhibition at 10 µM [3]: < 50%
- Ki [4]: 971 nM
- Emax ([5]; percentage of the maximum inhibition of dopamine at EC80 concentration, read-out: Imax (% Control)): 66.1 ± 17.6%
- IC50 ([5]; potency for D3 receptors, CHO-K1 cells, vs 30 nM (EC80) dopamine, mean ± SD, three experiments, read-out: IC50): 16.4 ± 7.7 nM
- inhibition at 10 µM [6]: < 50%
- Ki [7]: 9 nM
- Ki (nM) or % inhibition at 10 µM: Benzodiazepine receptor (PBR) ([7]; PDSP, HCl salts): relatively high affinity
- Ki [8]: 391 nM
- inhibition at 10 µM [9]: < 50%
- Ki [10]: 1260 nM
- Ki [11]: 3940 nM
- Ki [12]: 1240 nM
